Source: paper PMC7586797, “Phase 1 Study to Evaluate the Effect of the Investigational Anticancer Agent Sapanisertib on the QTc Interval in Patients With Advanced Solid Tumors” (Clinical Pharmacology in Drug Development, 2020)
Several values for one entry are separate records, joined by “and”; a condition that tells them apart may be missing. Equal entries are not always repeated. Where two headings read alike, the source gives them in different places.

What was measured:
[1] = test system: patients with advanced solid tumors; conditions: in vivo
Description: The relationships between concentration of sapanisertib and QTc and RR intervals were quantitatively analyzed in the PK/QTc analysis population using PK and ECG data from all patients. The data were first explored by graphical analysis, including a visual check for evidence of hysteresis. Mixed‐effects models were subsequently developed to describe the direct effect of sapanisertib on change from time‐matched baseline in RR, QTcI, and QTcF.
Standard diagnostic and goodness‐of‐fit plots were used for model evaluation and adequacy, plausibility, and precision of parameter estimates. A visual predictive check for the final model was generated to evaluate whether the model provided an accurate description of the data. The estimated parameters were reported with the standard error of the estimates as a measure of uncertainty, and nonparametric bootstrap resampling was used to construct 95%CI for the population parameters in each model. All model development was conducted with a qualified installation of the nonlinear mixed‐effects modeling software, version 7.3 (ICON Development Solutions, Hanover, Maryland). All data analyses were conducted using a qualified installation of the statistical software R.
A linear mixed‐effects model was used to characterize the direct effect of sapanisertib plasma concentration on ΔQTcI. […] The linear mixed‐effects model of sapanisertib plasma concentration versus ΔQTcI was subsequently used to predict the effect of sapanisertib on QTcI at the expected Cmax values for 4‐, 30‐, and 40‐mg sapanisertib doses. […] Model‐based simulations from the fitted model for ΔQTcI versus sapanisertib plasma concentration were used to generate CIs across the range of observed concentrations and to estimate the probability of patient ΔQTcI values exceeding 30‐ and 60‐millisecond thresholds at Cmax values corresponding to the 4‐, 30‐, and 40‐mg doses (Table 4).

[2] = test system: patients with advanced solid tumors; test: Dedicated QTc study: serial triplicate Holter ECGs, change from time-matched baseline; assay type: in vivo, human; conditions: for LSM QTcF Change (95% UCB) from time-matched baseline / LSM QTcI Change (95% UCB) from time-matched baseline / LSM heart rate change (95% UCB) from time-matched baseline: 40 mg single oral dose
Description: The study was conducted at 5 centers across the United States (Montefiore Medical Center, Bronx, New York; Washington University School of Medicine, Saint Louis, Missouri; Stephenson Cancer Center, University of Oklahoma, Oklahoma City, Oklahoma; Mary Crowley Cancer Research Center, Dallas, Texas; and Florida Cancer Specialists/Sarah Cannon Research Institute, Sarasota, Florida) to evaluate the effect of a single oral dose of sapanisertib (40 mg) on the electrocardiographic QT/QTc interval in patients with advanced solid tumors (NCT02197572, clinicaltrials.gov). The primary end point was change from time‐matched baseline in the QTc interval (ΔQTc).
Patients reported to the study sites on day –1 for collection of serial baseline triplicate ECGs prior to sapanisertib administration (described in the ECG Assessments section). […] The patients were equipped with 12 ECG leads to continuously record patient ECG data onto a Holter H12+ ECG recorder. All procedures that were followed on day –1 were consistent with procedures expected for day 1, with the exception of plasma sample collection for PK assessments, since no sapanisertib was administered on day –1. After collection of the 10‐hour time point ECG on day –1, the patients were furloughed from the study site with Holter recorders still attached. These Holter recorders were to remain attached overnight to continue to collect ECG data into day 1.
On cycle 1 day 1, triplicate ECGs and plasma samples for PK were collected from patients ≤15 minutes prior to dosing and at 15 minutes; 30 minutes; and 1‐, 1.5‐, 2‐, 2.5‐, 3‐, 4‐, 6‐, 8‐, and 10‐hour time points after receiving a single oral dose of 40‐mg sapanisertib. The Holter recorders and ECG leads were removed from patients after collection of the 10‐hour time point ECG on day 1, following which patients were furloughed from site. Additional collections of ECGs and plasma samples for PK were conducted at 24 (cycle 1 day 2) and 48 hours (cycle 1 day 3) after dosing. After the first week, that is, cycle 1 day 8, patients had the option to continue to receive treatment with sapanisertib at a dose of 30 mg once weekly in continuous 28‐day cycles until disease progression, unacceptable toxicity, withdrawal of consent, or completion of the 12‐month maximum study duration.
To enable collection of time‐matched ECG and PK data before and after sapanisertib administration, patients reported to the study sites on day –1, during which ECG leads (12 leads) and Holter H12+ ECG recorders were attached. Each planned ECG collection time point was preceded by a 5‐minute supine rest period, after which triplicate ECGs were extracted from the Holter recorders at approximately 2‐ to 5‐minute intervals. Serial triplicate ECGs were collected from 0 to 10 hours, matched to the planned dosing on cycle 1 day 1 predose and postdose ECG and PK time points, to characterize the baseline ECG and QTc interval. All triplicate ECGs were extracted and read centrally (Biotelemetry, Malvern, Pennsylvania). All blood draws for PK were collected after the triplicate ECG collection period.
The baseline characterization of serial triplicate ECG allowed for patient‐specific individual heart rate correction (QTcI) in addition to the Fridericia's ( QTcF=QT/RR3 ) correction that is commonly used in clinical practice. The patient‐specific slopes were calculated using all pairs of QT and RR (time elapsing between two consecutive R waves in an ECG) interval data collected on day –1 and estimated using the linear regression expression: logQT=loga+b∗logRR to calculate the individual slope (b) for each patient. QTcI was then calculated as QTcI=QT/RR^b
ECG analysis was conducted in the primary analysis population, which included patients who had all time points collected on Holter ECG monitoring on day –1 and day 1 of cycle 1, including ECG time points collected on cycle 1 day 1 to cycle 1 day 3 at 24 or 48 hours after dosing that had available baseline comparisons. […]

[3] = test system: human ether‐à‐go‐go channel; conditions: in vitro; cited from earlier work
[4] = design: method as in Takeda, data on file; conditions: human hepatocytes; ref Takeda, data on file; cited from earlier work
[5] = test system: organic cation transporter 2; design: method as in Takeda data on file; conditions: in vitro; ref Takeda data on file; cited from earlier work
[6] = test system: human ether‐à‐go‐go channel; test: In vitro hERG channel inhibition; assay type: biochemical; conditions: free Cmax 0.3 µM at 40 mg
[7] = cited from earlier work; for Geometric Mean Cmax: fasted, immediate release capsules, advanced solid tumors, ref data on file 14
[8] = after 40 mg dose, 32 evaluable patients

CC(C)n1nc(-c2ccc3oc(N)nc3c2)c2c(N)ncnc21 [sapanisertib]
Estimated probability that ΔQTcF would exceed 30 milliseconds or 60 milliseconds ([1]; human): < 0.0001 | Association of ΔQTcF with plasma concentration [1]: weakly negative association | Association of ΔQTcI with plasma concentration [1]: weakly negative association | Association of ΔRR with plasma concentration [1]: weakly positive association | LSM QTcF Change (95% UCB) from time-matched baseline ([2]; 0.25 h after dose): –1.7 (2.2) msec | LSM QTcI Change (95% UCB) from time-matched baseline ([2]; 0.25 h after dose): –2.2 (2.2) msec | LSM heart rate change (95% UCB) from time-matched baseline ([2]; 0.25 h after dose): –0.2 (2.2) bpm | LSM QTcF Change (95% UCB) from time-matched baseline ([2]; 0.5 h after dose): –5.3 (–1.5) msec | LSM QTcI Change (95% UCB) from time-matched baseline ([2]; 0.5 h after dose): –8.3 (–4.0) msec | LSM heart rate change (95% UCB) from time-matched baseline ([2]; 0.5 h after dose): –4.4 (–1.9) bpm | LSM QTcF Change (95% UCB) from time-matched baseline ([2]; 1 h after dose): 1.8 msec and 1.8 (5.6) msec | LSM QTcI Change (95% UCB) from time-matched baseline ([2]; 1 h after dose): –1.8 (2.6) msec | LSM heart rate change (95% UCB) from time-matched baseline ([2]; 1 h after dose): –3.8 (–1.4) bpm | LSM QTcF Change (95% UCB) from time-matched baseline ([2]; 1.5 h after dose): 0.1 (4.0) msec | LSM QTcI Change (95% UCB) from time-matched baseline ([2]; 1.5 h after dose): –2.7 (1.7) msec | LSM heart rate change (95% UCB) from time-matched baseline ([2]; 1.5 h after dose): –3.3 (–0.9) bpm | LSM QTcF Change (95% UCB) from time-matched baseline ([2]; 2 h after dose): –3.7 (0.1) msec | LSM QTcI Change (95% UCB) from time-matched baseline ([2]; 2 h after dose): –5.0 (–0.6) msec | LSM heart rate change (95% UCB) from time-matched baseline ([2]; 2 h after dose): –0.8 (1.5) bpm | LSM QTcF Change (95% UCB) from time-matched baseline ([2]; 2.5 h after dose): –7.4 (–3.6) msec | LSM QTcI Change (95% UCB) from time-matched baseline ([2]; 2.5 h after dose): –7.6 (–3.2) msec | LSM heart rate change (95% UCB) from time-matched baseline ([2]; 2.5 h after dose): 0.1 (2.5) bpm | LSM QTcF Change (95% UCB) from time-matched baseline ([2]; 3 h after dose): –7.6 (–3.7) msec | LSM QTcI Change (95% UCB) from time-matched baseline ([2]; 3 h after dose): –9.1 (–4.6) msec | LSM heart rate change (95% UCB) from time-matched baseline ([2]; 3 h after dose): –0.1 (2.3) bpm | LSM QTcF Change (95% UCB) from time-matched baseline ([2]; 4 h after dose): –8.0 (–4.2) msec | LSM QTcI Change (95% UCB) from time-matched baseline ([2]; 4 h after dose): –7.2 (–2.9) msec | LSM heart rate change (95% UCB) from time-matched baseline ([2]; 4 h after dose): –0.2 (2.2) bpm | LSM QTcF Change (95% UCB) from time-matched baseline ([2]; 6 h after dose): –10.1 (–6.4) msec | LSM QTcI Change (95% UCB) from time-matched baseline ([2]; 6 h after dose): –8.8 (–4.6) msec | LSM heart rate change (95% UCB) from time-matched baseline ([2]; 6 h after dose): 4.8 (7.1) bpm | LSM QTcF Change (95% UCB) from time-matched baseline ([2]; 8 h after dose): –4.2 (–0.3) msec | LSM QTcI Change (95% UCB) from time-matched baseline ([2]; 8 h after dose): –2.2 (2.4) msec | LSM heart rate change (95% UCB) from time-matched baseline ([2]; 8 h after dose): 6.9 (9.4) bpm | LSM QTcF Change (95% UCB) from time-matched baseline ([2]; 10 h after dose): –12.5 (–7.1) msec | LSM QTcI Change (95% UCB) from time-matched baseline ([2]; 10 h after dose): –6.6 (–0.5) msec | LSM heart rate change (95% UCB) from time-matched baseline ([2]; 10 h after dose): 8.6 bpm and 8.6 (12.1) bpm | LSM QTcF Change (95% UCB) from time-matched baseline ([2]; 24 h after dose): 0.8 (4.5) msec | LSM QTcI Change (95% UCB) from time-matched baseline ([2]; 24 h after dose): 7.1 msec and 7.1 (11.4) msec | LSM heart rate change (95% UCB) from time-matched baseline ([2]; 24 h after dose): 12.4 bpm and 12.4 (14.7) bpm | LSM QTcF Change (95% UCB) from time-matched baseline ([2]; 48 h after dose): 1.2 msec and 1.2 (5.8) msec | LSM QTcI Change (95% UCB) from time-matched baseline ([2]; 48 h after dose): 2.8 (8.1) msec | LSM heart rate change (95% UCB) from time-matched baseline ([2]; 48 h after dose): 5.4 (8.3) bpm | Clinically relevant (>20 milliseconds) effect on the QT interval ([2]; 40 mg, patients with advanced solid tumors): does not produce clinically relevant (ie, >20 milliseconds) effects on the QT interval | Patients with PR >200 msec [2, 8]: 1 (3.1) n (%) | Patients with QRS >110 msec [2, 8]: 0 (0) n (%) | Patients with QTcF >450 msec [2, 8]: 2 (6.3) n (%) | Patients with QTcF >480 msec [2, 8]: 0 (0) n (%) | Patients with QTcF >500 msec [2, 8]: 0 (0) n (%) | Patients with QTcI >450 msec [2, 8]: 6 (18.8) n (%) | Patients with QTcI >480 msec [2, 8]: 1 (3.1) n (%) | Patients with QTcI >500 msec [2, 8]: 0 (0) n (%) | Patients with ΔPR >25% at any time point [2, 8]: 1 (3.1) n (%) | Patients with ΔQRS >25% at any time point [2, 8]: 0 (0) n (%) | Patients with ΔQTcF >30 msec at any time point [2, 8]: 2 (6.3) n (%) | Patients with ΔQTcF >60 msec at any time point [2, 8]: 0 (0) n (%) | Patients with ΔQTcI >30 msec at any time point [2, 8]: 5 (15.6) n (%) | Patients with ΔQTcI >60 msec at any time point [2, 8]: 1 (3.1) n (%) | Patients with ΔQTcI between 30 and 60 milliseconds ([2]; after 40 mg dose, of the 6 patients with prolonged QTcI, 32 evaluable): 4 patients | IC50 [3]: 175 µM | Share of hepatic metabolism mediated by cytochrome P450 (CYP) isozymes [4]: ~60% | Share of hepatic metabolism mediated by other non-CYP enzymes [4]: ~20% | Share of hepatic metabolism mediated by uridine 5'-diphospho-glucuronosyltransferases [4]: ~20% | IC50 [5]: 1.9 µM | hERG IC50 as multiple of anticipated free Cmax [6]: ~583 times | Geometric Mean Cmax ([7]; 4 mg once daily): 36.9 ng/mL ^a | Geometric Mean Cmax ([7]; 30 mg once weekly): 235 ng/mL ^b | Anticipated free maximum plasma concentration (Cmax) ([7]; 40 mg, cancer patients): 300 nM | Cmax ([7]; 40 mg, cancer patients, read-out: Total Cmax): 960 nM | Dose linearity of pharmacokinetics ([7]; 2- to 40-mg dose range): dose‐linear pharmacokinetics | Accumulation ratio ([7]; once-daily administration): ~1 | Accumulation ([7]; once-weekly administration): does not accumulate
